Here are results for one compound from BindingDB's records for patent US12071420 (Hoffmann-La Roche, 2024).

For this experiment, the target named is Cannabinoid receptor 2 (Homo sapiens, UniProt P34972). The experiment is described as follows: Radioligand Binding Assay. The method, then:
The affinity of the compounds of the invention for cannabinoid CB1 receptors was determined using recommended amounts of membrane preparations (PerkinElmer) of human embryonic kidney (HEK) cells expressing the human CNR1 or CNR2 receptors in conjunction with 1.5 or 2.6 nM [3H]-CP-55,940 (Perkin Elmer) as radioligand, respectively. Binding was performed in binding buffer (50 mM Tris, 5 mM MgCl2, 2.5 mM EDTA, and 0.5% (wt/vol) fatty acid free BSA, pH 7.4 for CB1 receptor and 50 mM Tris, 5 mM MgCl2, 2.5 mM EGTA, and 0.1% (wt/vol) fatty acid free BSA, pH 7.4 for CB2 receptor) in a total volume of 0.2 ml for 1 h at 30° C. shaking. The reaction was terminated by rapid filtration through microfiltration plates coated with 0.5% polyethylenimine (UniFilter GF/B filter plate; Packard). Bound radioactivity was analyzed for Ki using nonlinear regression analysis (Activity Base, ID Business Solution, Limited), with the Kd values for [3H]CP55,940 determined from saturation experiments. The compounds of formula (I) show an excellent affinity for the CB2 receptor.

Sequence of Cannabinoid receptor 2 (P34972 whole entry): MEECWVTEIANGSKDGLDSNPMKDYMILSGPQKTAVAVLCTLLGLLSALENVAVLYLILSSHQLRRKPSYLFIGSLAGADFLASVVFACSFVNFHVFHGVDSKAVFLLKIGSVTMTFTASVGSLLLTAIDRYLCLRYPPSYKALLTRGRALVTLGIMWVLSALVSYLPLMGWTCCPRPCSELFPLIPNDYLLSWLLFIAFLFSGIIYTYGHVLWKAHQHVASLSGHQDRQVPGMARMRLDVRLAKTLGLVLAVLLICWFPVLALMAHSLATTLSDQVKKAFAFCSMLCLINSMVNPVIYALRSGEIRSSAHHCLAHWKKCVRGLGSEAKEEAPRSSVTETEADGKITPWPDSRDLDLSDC

On to `COC1CN(c2ccc(C(=O)N[C@H](COCF)CC(C)C)nc2OCC2CC2)C1` [US12071420, Example 25], for which the Ki was found to be 14 nM. This counts as double-digit nanomolar.

By Ki is commonly meant a measure of affinity in units of concentration, obtained from inhibition or displacement. Low values mean a stronger hold on the target, high ones a looser hold on the target.
